Patent EP4763839A1 (Pamplona Therapeutics (Shenzhen) Co., Ltd., priority 2023, dated 2025)
Where a name gives a salt, the structure may show the parent alone.

Target: T1, IRAK4 (Homo sapiens, UniProt Q9NWZ3)
T1 sequence (Q9NWZ3 1-460): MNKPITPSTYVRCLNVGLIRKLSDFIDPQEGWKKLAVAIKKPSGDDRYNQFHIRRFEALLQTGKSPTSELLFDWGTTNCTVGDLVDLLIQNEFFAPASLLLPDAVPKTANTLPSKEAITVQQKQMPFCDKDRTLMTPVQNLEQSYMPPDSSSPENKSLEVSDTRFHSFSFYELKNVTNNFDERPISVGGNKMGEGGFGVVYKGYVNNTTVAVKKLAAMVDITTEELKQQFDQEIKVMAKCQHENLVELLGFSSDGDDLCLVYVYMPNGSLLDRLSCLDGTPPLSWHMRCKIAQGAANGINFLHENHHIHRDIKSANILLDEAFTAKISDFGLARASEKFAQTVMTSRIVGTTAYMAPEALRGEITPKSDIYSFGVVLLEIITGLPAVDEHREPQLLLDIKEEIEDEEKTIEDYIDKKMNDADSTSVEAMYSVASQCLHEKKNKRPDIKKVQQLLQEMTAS
Assay: Degradation of IRAK4 in THP1 cells, Western blot
Type: cell-based
Design: Degradation of IRAK4 in THP1 by compound; host or cells: THP-1
Settings: THP-1 cells, 24 hours of incubation; for DC50: IRAK4 protein by Western blot, read-out: DC50; for Dmax: maximum degradation rate, read-out: Dmax
Experimental: After 24 hours of incubation, the cells were collected into 1.5 mL centrifuge tubes and centrifuged at 1,000 rpm for 5 minutes. […] The supernatants were collected, and the IRAK4 protein levels were respectively detected by Western blot (WB). The total protein concentration in the cell lysate supernatant was determined using a BCA protein quantification kit (NCM). Based on the total protein concentration detected by BCA, the samples were adjusted to 2 μg/μL using cell lysis buffer and 5×SDS-PAGE protein loading buffer (Beyotime), heated at 95°C for 5 minutes in a metal bath, and then placed on ice for an ice bath for 5 minutes before being used as the loading samples for Western blot analysis. Protein electrophoresis was performed using a 10% SDS-PAGE gel with a loading volume of 20 μL (total protein 40 μg) and Tris-SDS electrophoresis at a constant voltage of 80 V. After electrophoresis, the proteins on the gel were transferred to a 0.2 μm PVDF membrane (Immobilon) using a semi-dry transfer method at 0.5 A and 20 V for 60 minutes. After transfer, the membrane was placed in 5% skimmed milk and incubated at rt for 2 hours. After blocking, the PVDF membrane was incubated with primary antibody against IRAK4 (Abcam) at 4°C overnight. […] The color development and protein band imaging were performed using a chemiluminescence imaging system ([…] Technology Co., Ltd.). The protein bands were analyzed for grayscale values using Image J analysis software. The corrected grayscale values for each sample were calculated and then compared with those of the control group treated with DMSO alone to calculate the degradation rate.

Row | Structure (SMILES) | DC50 [nM] | Dmax [%]
1 | Cn1c(=O)n(C2CCC(=O)NC2=O)c2cccc(N3CCC(N4CCN(Cc5ccc(-n6cc(NC(=O)c7cccc(-c8ccn[nH]8)n7)c(S(N)(=O)=O)n6)cc5)CC4)CC3)c21 (stereo not drawn) [Compound A352] | < 100 | > 60
2 | N#Cc1ccc(C(=O)Nc2cn(-c3ccc(N4CCN(CC5CCN(c6ccc(NC7CCC(=O)NC7=O)cc6F)CC5)CC4)cc3)nc2C(N)=O)nc1 (stereo not drawn) [Compound A353, N-(3-Carbamoyl-1-(4-(4-((1-(4-((2,6-dioxopiperidin-3-yl)amino)-2-fluorophenyl)piperidin-4-yl)methyl)piperazin-1-yl)phenyl)-1H-pyrazol-4-yl)-5-cyanopicolinamide] | > 1000 | < 40
3 | Cn1c(=O)n(C2CCC(=O)NC2=O)c2cccc(NCC3CC4(C3)CN(C(=O)c3ccc(-n5cc(NC(=O)c6cccc(-c7ccn[nH]7)n6)c(S(N)(=O)=O)n5)cc3)C4)c21 (stereo not drawn) [Compound A354, N-(1-(4-(6-(((1-(2,6-Dioxopiperidin-3-yl)-3-methyl-2-oxo-2,3-dihydro-1H-benzo[d]imidazol-4-yl)amino)methyl)-2-azaspiro[3.3]heptane-2-carbonyl)phenyl)-3-sulfamoyl-1H-pyrazol-4-yl)-6-(1H-pyrazol-5-yl)picolinamide] | < 100 | > 60
4 | Cn1c(=O)n(C2CCC(=O)NC2=O)c2cccc(C(=O)N3CCC4(CCN(Cc5ccc(-n6cc(NC(=O)c7cccc(-c8ccn[nH]8)n7)c(S(N)(=O)=O)n6)cc5)C4)CC3)c21 (stereo not drawn) [Compound A357, N-(1-(4-((8-(1-(2,6-Dioxopiperidin-3-yl)-3-methyl-2-oxo-2,3-dihydro-1H-benzo[d]imidazole-4-carbonyl)-2,8-diazaspiro[4.5]decan-2-yl)methyl)phenyl)-3-sulfamoyl-1H-pyrazol-4-yl)-6-(1H-pyrazol-5-yl)picolinamide] | < 100 | > 60
5 | Cn1c(=O)n(C2CCC(=O)NC2=O)c2cccc(CN3CCC(N4CCN(c5ccc(-n6cc(NC(=O)c7cccc(C(F)(F)F)n7)c(C(N)=O)n6)cc5)CC4)CC3)c21 (stereo not drawn) [Compound A372] | < 100 | > 60
6 | Cn1c(=O)n(C2CCC(=O)NC2=O)c2cccc(N3CCC(N4CCN(Cc5ccc(-n6cc(NC(=O)c7cccc(C(F)(F)F)n7)c(C(N)=O)n6)cc5)CC4)CC3)c21 (stereo not drawn) [Compound A373, N-(3-Carbamoyl-1-(4-(4-(1-(1-(2,6-dioxopiperidin-3-yl)-3-methyl-2-oxo-2,3-dihydro-1H-benzo[d]imidazol-4-yl)piperidin-4-yl)piperazin-1-yl)methyl)phenyl)-1H-pyrazol-4-yl)-6-(trifluoromethyl)picolinamide formate] | < 100 | > 60
7 | NC(=O)c1nn(C2CCC(N3CCN(CC4CCN(c5ccc(NC6CCC(=O)NC6=O)cc5F)CC4)CC3)CC2)cc1NC(=O)c1cccc(C(F)(F)F)n1 (stereo not drawn) [Compound A374] | < 100 | > 60

Second part, the compound after the results:

Row | DC50 [nM] | Dmax [%] | Structure (SMILES)
8 | 100 to 1000 | 40 to 60 | Cn1c(=O)n(C2CCC(=O)NC2=O)c2cccc(C#CCOC3CN(Cc4ccc(-n5cc(NC(=O)c6cccc(-c7ccn[nH]7)n6)c(S(N)(=O)=O)n5)cc4)C3)c21 (stereo not drawn) [Compound A351, N-(1-(4-((3-((3-(1-(2,6-dioxopiperidin-3-yl)-3-methyl-2-oxo-2,3-dihydro-1H-benzo[d]imidazol-4-yl)prop-2-yn-1-yl)oxy)azetidin-1-yl)methyl)phenyl)-3-sulfamoyl-1H-pyrazol-4-yl)-6-(1H-pyrazol-5-yl)picolinamide]
9 | < 100 | > 60 | NC(=O)c1nn(-c2ccc(N3CCN(C(=O)N4CCC(c5ccc(OC6CCC(=O)NC6=O)cc5F)CC4)CC3)cc2)cc1NC(=O)c1cccc(C(F)(F)F)n1 (stereo not drawn) [Compound A355, N-(3-Carbamoyl-1-(4-(4-(4-(4-((2,6-dioxopiperidin-3-yl)oxy)-2-fluorophenyl)piperidine-1-carbonyl)piperazin-1-yl)phenyl)-1H-pyrazol-4-yl)-6-(trifluoromethyl)picolinamide]
10 | < 100 | > 60 | Cn1c(=O)n(C2CCC(=O)NC2=O)c2cccc(NCCN3CCN(C(=O)c4ccc(-n5cc(NC(=O)c6cccc(-c7ccn[nH]7)n6)c(S(N)(=O)=O)n5)cc4)CC3)c21 (stereo not drawn) [Compound A356, N-(1-(4-(4-(2-((1-(2,6-Dioxopiperidin-3-yl)-3-methyl-2-oxo-2,3-dihydro-1H-benzo[d]imidazol-4-yl)amino)ethyl)piperazine-1-carbonyl)phenyl)-3-sulfamoyl-1H-pyrazol-4-yl)-6-(1H-pyrazol-5-yl)picolinamide]
11 | 100 to 1000 | 40 to 60 | NC(=O)c1nn(-c2ccc(N3CCN(CC4CCN(c5ccc(NC6CCC(=O)NC6=O)cc5F)C4)CC3)cc2)cc1NC(=O)c1cccc(C(F)(F)F)n1 (stereo not drawn) [Compound A361, N-(3-Carbamoyl-1-(4-(4-((1-(4-((2,6-dioxopiperidin-3-yl)amino)-2-fluorophenyl)pyrrolidin-3-yl)methyl)piperazin-1-yl)phenyl)-1H-pyrazol-4-yl)-6-(trifluoromethyl)picolinamide formate]
12 | < 100 | > 60 | NC(=O)c1nn(-c2ccc(N3CCN(C4CCN(c5ccc(NC6CCC(=O)NC6=O)cc5F)CC4)CC3)cc2)cc1NC(=O)c1cccc(C(F)(F)F)n1 (stereo not drawn) [Compound A365, 1-{4-[4-(1-{4-[(2,6-dioxopiperidin-3-yl)amino]-2-fluorophenyl}piperidin-4-yl)piperazin-1-yl]phenyl}-4-({[6-(trifluoromethyl)pyridin-2-yl]carbonyl}amino)pyrazole-3-carboxamide]
13 | < 100 | > 60 | Cn1c(=O)n(C2CCC(=O)NC2=O)c2cccc(N3CCC(C(=O)N4CCN(c5ccc(-n6cc(NC(=O)c7cccc(C(F)(F)F)n7)c(C(N)=O)n6)cc5)CC4)CC3)c21 (stereo not drawn) [Compound A368, N-(3-Carbamoyl-1-(4-(4-(1-(1-(2,6-dioxopiperidin-3-yl)-3-methyl-2-oxo-2,3-dihydro-1H-benzo[d]imidazol-4-yl)piperidine-4-carbonyl)piperazin-1-yl)phenyl)-1H-pyrazol-4-yl)-6-(trifluoromethyl)picolinamide]
14 | < 100 | > 60 | Cn1c(=O)n(C2CCC(=O)NC2=O)c2cccc(N3CCC(CN4CCN(c5ccc(-n6cc(NC(=O)c7cccc(C(F)(F)F)n7)c(C(=O)NC7CC7)n6)cc5)CC4)CC3)c21 (stereo not drawn) [Compound A369, N-{3-[(cyclopropylamino)carbonyl]-1-{4-[4-({1-[1-(2,6-dioxopiperidin-3-yl)-3-methyl-2-oxobenzo[d]imidazol-4-yl]piperidin-4-yl}methyl)piperazin-1-yl]phenyl}pyrazol-4-yl}-6-(trifluoromethyl)pyridine-2-carboxamide formate]
15 | < 100 | > 60 | NC(=O)c1nn(-c2ccc(N3CCN(CC4CCN(c5ccc(OC6CCC(=O)NC6=O)cn5)CC4)CC3)cc2)cc1NC(=O)c1cccc(C(F)(F)F)n1 (stereo not drawn) [Compound A377, N-(3-Carbamoyl-1-(4-(4-((1-(5-((2,6-dioxopiperidin-3-yl)oxy)pyridin-2-yl)piperidin-4-yl)methyl)piperazin-1-yl)phenyl)-1H-pyrazol-4-yl)-6-(trifluoromethyl)picolinamide]
